# Patent US8952024B2, “Herbicidal pyrimidone derivatives” (E I du Pont de Nemours and Company, priority 2009, dated 2015)
# System: velvetleaf (Abutilon theophrasti)
# Test: Test A pre-/postemergence plant response
# Assay type: in vivo
# Conditions: Postemergence, 125 g ai/ha; 0 to 100 scale where 0 is no effect and 100 is complete control
# How it was run: (§1)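 Pre: directed soil spray on seeded loam/sand blend. Post: same formulation (non-phytotoxic solvent + surfactant) on 2–10 cm plants, 1–2 leaf stage. Greenhouse ~10 d; visual injury score 0–100 vs untreated.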
row,SMILES,"Plant response rating, Velvetleaf"
1,COc1ccc(-n2c(-c3cccc(F)c3)ncc(C(=O)C3=C(O)CCCC3=O)c2=O)cc1 [Compound 203],90

# Same assay, conditions: Postemergence, 500 g ai/ha; visual injury, 0 to 100 scale (0 no effect, 100 complete control), approx. ten days
row,SMILES,Velvetleaf plant response rating
1,COc1ccc(-n2c(-c3cccc(F)c3)ncc(C(=O)C3=C(O)CCCC3=O)c2=O)cc1 [Compound 203],100

# Same assay, conditions: Preemergence, 125 g ai/ha; 0 to 100 scale, 0 = no effect, 100 = complete control
row,SMILES,"Plant response rating, Velvetleaf"
1,COc1ccc(-n2c(-c3cccc(F)c3)ncc(C(=O)C3=C(O)CCCC3=O)c2=O)cc1 [Compound 203],50

# Same assay, conditions: Preemergence, 500 g ai/ha; 0 to 100 scale, 0 = no effect, 100 = complete control
row,SMILES,"Plant response rating, Velvetleaf"
1,COc1ccc(-n2c(-c3cccc(F)c3)ncc(C(=O)C3=C(O)CCCC3=O)c2=O)cc1 [Compound 203],80

# System: wheat (Triticum aestivum)
# Test: Test A pre-/postemergence plant response
# Assay type: in vivo
# Conditions: Postemergence, 125 g ai/ha; 0 to 100 scale where 0 is no effect and 100 is complete control
# How it was run: as §1
row,SMILES,"Plant response rating, Wheat"
1,COc1ccc(-n2c(-c3cccc(F)c3)ncc(C(=O)C3=C(O)CCCC3=O)c2=O)cc1 [Compound 203],0

# Same assay, conditions: Postemergence, 500 g ai/ha; visual injury, 0 to 100 scale (0 no effect, 100 complete control), approx. ten days
row,SMILES,Wheat plant response rating
1,COc1ccc(-n2c(-c3cccc(F)c3)ncc(C(=O)C3=C(O)CCCC3=O)c2=O)cc1 [Compound 203],30

# Same assay, conditions: Preemergence, 125 g ai/ha; 0 to 100 scale, 0 = no effect, 100 = complete control
row,SMILES,"Plant response rating, Wheat"
1,COc1ccc(-n2c(-c3cccc(F)c3)ncc(C(=O)C3=C(O)CCCC3=O)c2=O)cc1 [Compound 203],0

# Same assay, conditions: Preemergence, 500 g ai/ha; 0 to 100 scale, 0 = no effect, 100 = complete control
row,SMILES,"Plant response rating, Wheat"
1,COc1ccc(-n2c(-c3cccc(F)c3)ncc(C(=O)C3=C(O)CCCC3=O)c2=O)cc1 [Compound 203],30

# System: barnyardgrass (Echinochloa crus-galli)
# Test: Test B flooded paddy test
# Assay type: in vivo
# Conditions: 250 g ai/ha; flooded paddy test; visual rating on 0 to 100 scale (0 no effect, 100 complete control) after 13 to 15 days
# How it was run: (§2)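 Ratings are visual, 0–100 (100 = complete control), taken versus untreated controls 13 to 15 days after treatment in the greenhouse. Compound went straight into paddy water held 3 cm above soil, applied to 2-leaf-stage plants of four species.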
row,SMILES,"Plant response rating, Flood, Barnyardgrass"
1,COc1ccc(-n2c(-c3cccc(F)c3)ncc(C(=O)C3=C(O)CCCC3=O)c2=O)cc1 [Compound 203],20

# Same assay, conditions: Flood (flooded paddy test), 62 g ai/ha; scale of 0 to 100 where 0 is no effect and 100 is complete control; 13 to 15 days
row,SMILES,"Plant response rating, Barnyardgrass"
1,COc1ccc(-n2c(-c3cccc(F)c3)ncc(C(=O)C3=C(O)CCCC3=O)c2=O)cc1 [Compound 203],0

# Same assay, conditions: Flood (flooded paddy test), 125 g ai/ha; scale 0 to 100, 0 is no effect, 100 is complete control; 13 to 15 days
row,SMILES,"Plant response rating, Barnyardgrass"
1,COc1ccc(-n2c(-c3cccc(F)c3)ncc(C(=O)C3=C(O)CCCC3=O)c2=O)cc1 [Compound 203],0

# Same assay, conditions: Flood, 31 g ai/ha; scale 0 to 100 (0 no effect, 100 complete control)
row,SMILES,Barnyardgrass plant response rating
1,COc1ccc(-n2c(-c3cccc(F)c3)ncc(C(=O)C3=C(O)CCCC3=O)c2=O)cc1 [Compound 203],0

# System: ducksalad (Heteranthera limosa)
# Test: Test B flooded paddy test
# Assay type: in vivo
# Conditions: 250 g ai/ha; flooded paddy test; visual rating on 0 to 100 scale (0 no effect, 100 complete control) after 13 to 15 days
# How it was run: as §2
row,SMILES,"Plant response rating, Flood, Ducksalad"
1,COc1ccc(-n2c(-c3cccc(F)c3)ncc(C(=O)C3=C(O)CCCC3=O)c2=O)cc1 [Compound 203],95

# Same assay, conditions: Flood (flooded paddy test), 62 g ai/ha; scale of 0 to 100 where 0 is no effect and 100 is complete control; 13 to 15 days
row,SMILES,"Plant response rating, Ducksalad"
1,COc1ccc(-n2c(-c3cccc(F)c3)ncc(C(=O)C3=C(O)CCCC3=O)c2=O)cc1 [Compound 203],75

# Same assay, conditions: Flood (flooded paddy test), 125 g ai/ha; scale 0 to 100, 0 is no effect, 100 is complete control; 13 to 15 days
row,SMILES,"Plant response rating, Ducksalad"
1,COc1ccc(-n2c(-c3cccc(F)c3)ncc(C(=O)C3=C(O)CCCC3=O)c2=O)cc1 [Compound 203],95

# Same assay, conditions: Flood, 31 g ai/ha; scale 0 to 100 (0 no effect, 100 complete control)
row,SMILES,Ducksalad plant response rating
1,COc1ccc(-n2c(-c3cccc(F)c3)ncc(C(=O)C3=C(O)CCCC3=O)c2=O)cc1 [Compound 203],40

# System: rice (Oryza sativa)
# Test: Test B flooded paddy test
# Assay type: in vivo
# Conditions: 250 g ai/ha; flooded paddy test; visual rating on 0 to 100 scale (0 no effect, 100 complete control) after 13 to 15 days
# How it was run: as §2
row,SMILES,"Plant response rating, Flood, Rice"
1,COc1ccc(-n2c(-c3cccc(F)c3)ncc(C(=O)C3=C(O)CCCC3=O)c2=O)cc1 [Compound 203],0

# Same assay, conditions: Flood (flooded paddy test), 62 g ai/ha; scale of 0 to 100 where 0 is no effect and 100 is complete control; 13 to 15 days
row,SMILES,"Plant response rating, Rice"
1,COc1ccc(-n2c(-c3cccc(F)c3)ncc(C(=O)C3=C(O)CCCC3=O)c2=O)cc1 [Compound 203],0

# Same assay, conditions: Flood (flooded paddy test), 125 g ai/ha; scale 0 to 100, 0 is no effect, 100 is complete control; 13 to 15 days
row,SMILES,"Plant response rating, Rice"
1,COc1ccc(-n2c(-c3cccc(F)c3)ncc(C(=O)C3=C(O)CCCC3=O)c2=O)cc1 [Compound 203],0

# Same assay, conditions: Flood, 31 g ai/ha; scale 0 to 100 (0 no effect, 100 complete control)
row,SMILES,Rice plant response rating
1,COc1ccc(-n2c(-c3cccc(F)c3)ncc(C(=O)C3=C(O)CCCC3=O)c2=O)cc1 [Compound 203],0

# System: umbrella sedge (Cyperus difformis)
# Test: Test B flooded paddy test
# Assay type: in vivo
# Conditions: 250 g ai/ha; flooded paddy test; visual rating on 0 to 100 scale (0 no effect, 100 complete control) after 13 to 15 days
# How it was run: as §2
row,SMILES,"Plant response rating, Flood, Sedge, Umbrella"
1,COc1ccc(-n2c(-c3cccc(F)c3)ncc(C(=O)C3=C(O)CCCC3=O)c2=O)cc1 [Compound 203],85

# Same assay, conditions: Flood (flooded paddy test), 62 g ai/ha; scale of 0 to 100 where 0 is no effect and 100 is complete control; 13 to 15 days
row,SMILES,"Plant response rating, Sedge, Umbrella"
1,COc1ccc(-n2c(-c3cccc(F)c3)ncc(C(=O)C3=C(O)CCCC3=O)c2=O)cc1 [Compound 203],65

# Same assay, conditions: Flood (flooded paddy test), 125 g ai/ha; scale 0 to 100, 0 is no effect, 100 is complete control; 13 to 15 days
row,SMILES,"Plant response rating, Sedge, Umbrella"
1,COc1ccc(-n2c(-c3cccc(F)c3)ncc(C(=O)C3=C(O)CCCC3=O)c2=O)cc1 [Compound 203],75

# Same assay, conditions: Flood, 31 g ai/ha; scale 0 to 100 (0 no effect, 100 complete control)
row,SMILES,"Sedge, Umbrella plant response rating"
1,COc1ccc(-n2c(-c3cccc(F)c3)ncc(C(=O)C3=C(O)CCCC3=O)c2=O)cc1 [Compound 203],0
